Legend:
Test in all cases: relative viability (nuclei count vs DMSO), 5 days (fraction); higher = more cells survive
[1] = test system: NCI-H1734
Outline: (§1)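 Lung cancer cell lines were pin-tool dosed in 1536-well plates on the day after seeding, with either a lone drug or a fixed anchor-drug dose plus five library-drug doses (not always all listed) in √10 steps. Nuclei were counted on 4× images after 5 days. Relative viability is the ratio of treated-well to vehicle-well nuclei counts, with each value a median of duplicate plates.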

[2] = test system: LK-2
Outline: as §1

[3] = test system: UMC-11
Outline: as §1

[4] = test system: NCI-H2009
Outline: as §1

[5] = test system: NCI-H1623
Outline: as §1

[6] = test system: NCI-H1650
Outline: as §1

[7] = test system: CAL-12T
Outline: as §1

[8] = test system: A-427
Outline: as §1

Work on `Nc1ccn([C@@H]2O[C@H](CO)[C@@H](O)[C@@H]2O)c(=O)n1` [Cytarabine] + CCNC(=O)c1noc(-c2cc(C(C)C)c(O)cc2O)c1-c1ccc(CN2CCOCC2)cc1 [Luminespib] (partner 0.01 µM) yielded a relative viability ([1]; first compound 0.005 µM) of 0.251, a relative viability ([1]; first compound 0.01581 µM) of 0.162 and a relative viability ([1]; first compound 0.05 µM) of 0.138. It also gave a relative viability ([1]; first compound 0.1581 µM) of 0.139, a relative viability ([1]; first compound 0.5 µM) of 0.134 and a relative viability ([2]; first compound 0.005 µM) of 0.193. For the same compound, the relative viability ([2]; first compound 0.01581 µM) was 0.187, the relative viability ([2]; first compound 0.05 µM) was 0.197 and the relative viability ([2]; first compound 0.1581 µM) was 0.155. For the same compound, the relative viability ([2]; first compound 0.5 µM) was 0.176, the relative viability ([3]; first compound 0.005 µM) was 0.792 and the relative viability ([3]; first compound 0.01581 µM) was 0.591. The relative viability ([3]; first compound 0.05 µM) was 0.495, the relative viability ([3]; first compound 0.1581 µM) was 0.357 and the relative viability ([3]; first compound 0.5 µM) was 0.225. For the same compound, the relative viability ([4]; first compound 0.005 µM) was 0.995, the relative viability ([4]; first compound 0.01581 µM) was 1.06 and the relative viability ([4]; first compound 0.05 µM) was 1.04. The relative viability ([4]; first compound 0.1581 µM) was 0.775, the relative viability ([4]; first compound 0.5 µM) was 0.239 and the relative viability ([5]; first compound 0.005 µM) was 0.321. It also gave a relative viability ([5]; first compound 0.01581 µM) of 0.361, a relative viability ([5]; first compound 0.05 µM) of 0.316 and a relative viability ([5]; first compound 0.1581 µM) of 0.232. It also gave a relative viability ([5]; first compound 0.5 µM) of 0.234, a relative viability ([6]; first compound 0.005 µM) of 0.208 and a relative viability ([6]; first compound 0.01581 µM) of 0.181. It also gave a relative viability ([6]; first compound 0.05 µM) of 0.254, a relative viability ([6]; first compound 0.1581 µM) of 0.218 and a relative viability ([6]; first compound 0.5 µM) of 0.209. For the same compound, the relative viability ([7]; first compound 0.005 µM) was 0.227, the relative viability ([7]; first compound 0.01581 µM) was 0.288 and the relative viability ([7]; first compound 0.05 µM) was 0.64. For the same compound, the relative viability ([7]; first compound 0.1581 µM) was 0.217, the relative viability ([7]; first compound 0.5 µM) was 0.178 and the relative viability ([8]; first compound 0.005 µM) was 0.708. It also gave a relative viability ([8]; first compound 0.01581 µM) of 0.425, a relative viability ([8]; first compound 0.05 µM) of 0.238 and a relative viability ([8]; first compound 0.1581 µM) of 0.186. The relative viability ([8]; first compound 0.5 µM) was 0.161.

`CC(=O)O[C@@]12CO[C@@H]1C[C@H](O)[C@@]1(C)C(=O)[C@H](O)C3=C(C)[C@@H](OC(=O)[C@H](O)[C@@H](NC(=O)OC(C)(C)C)c4ccccc4)C[C@@](O)([C@@H](OC(=O)c4ccccc4)[C@H]21)C3(C)C` [Docetaxel] + Cc1nc(Nc2ncc(C(=O)Nc3c(C)cccc3Cl)s2)cc(N2CCN(CCO)CC2)n1 [Dasatinib] (partner 0.075 µM) was tested, and the relative viability ([1]; first compound 0.0002 µM) was 0.46, the relative viability ([1]; first compound 0.000632 µM) was 0.286 and the relative viability ([1]; first compound 0.002 µM) was 0.234. It also gave a relative viability ([1]; first compound 0.006325 µM) of 0.239, a relative viability ([1]; first compound 0.02 µM) of 0.163 and a relative viability ([2]; first compound 0.0002 µM) of 0.212. The relative viability ([2]; first compound 0.000632 µM) was 0.268, the relative viability ([2]; first compound 0.002 µM) was 0.181 and the relative viability ([2]; first compound 0.006325 µM) was 0.21. For the same compound, the relative viability ([2]; first compound 0.02 µM) was 0.113, the relative viability ([3]; first compound 0.0002 µM) was 0.429 and the relative viability ([3]; first compound 0.000632 µM) was 0.42. For the same compound, the relative viability ([3]; first compound 0.002 µM) was 0.264, the relative viability ([3]; first compound 0.006325 µM) was 0.21 and the relative viability ([3]; first compound 0.02 µM) was 0.171. It also gave a relative viability ([4]; first compound 0.0002 µM) of 0.261, a relative viability ([4]; first compound 0.000632 µM) of 0.299 and a relative viability ([4]; first compound 0.002 µM) of 0.273. The relative viability ([4]; first compound 0.006325 µM) was 0.204, the relative viability ([4]; first compound 0.02 µM) was 0.121 and the relative viability ([5]; first compound 0.0002 µM) was 0.555. For the same compound, the relative viability ([5]; first compound 0.000632 µM) was 0.529, the relative viability ([5]; first compound 0.002 µM) was 0.472 and the relative viability ([5]; first compound 0.006325 µM) was 0.313. It also gave a relative viability ([5]; first compound 0.02 µM) of 0.239, a relative viability ([6]; first compound 0.0002 µM) of 0.263 and a relative viability ([6]; first compound 0.000632 µM) of 0.245. It also gave a relative viability ([6]; first compound 0.02 µM) of 0.104, a relative viability ([7]; first compound 0.0002 µM) of 0.412 and a relative viability ([7]; first compound 0.000632 µM) of 0.192. It also gave a relative viability ([7]; first compound 0.002 µM) of 0.137, a relative viability ([7]; first compound 0.006325 µM) of 0.0909 and a relative viability ([7]; first compound 0.02 µM) of 0.0651. For the same compound, the relative viability ([8]; first compound 0.0002 µM) was 0.721, the relative viability ([8]; first compound 0.000632 µM) was 0.642 and the relative viability ([8]; first compound 0.002 µM) was 0.445. It also gave a relative viability ([8]; first compound 0.006325 µM) of 0.154 and a relative viability ([8]; first compound 0.02 µM) of 0.141.

Reference: the supplement of paper PMC10307832
